Entries after “also recorded” stand apart in the source; their conditions may differ.
Legend:
[1] = tested on: A2058 melanoma cell line; assay: Anti-proliferative effect of miRNA mimics, MTS assay; assay type: cell-based; details: 10 nM mimic, 72 hours after transfection
Description: (§1) The anti-proliferative effect of miRNA's in melanoma cell lines was determined with mature miRNA mimics from Ambion. For each cell line optimal growth and transfection conditions were determined prior to the experiment. Cells were plated in a 96-well plate at 3000 cells per well (100 uL) and were grown at 37 C, 5% CO2. Transfection mix (20 uL per well) was made for each miRNA mimic concentration with 0.3 uL (M249, M249-R4) or 0.5 uL (A375Hu, A375Hu-R1, A2058, RPMI-7951) X-TremeGene (Roche) per well (according to manufacturer's instructions) in Optimem (Invitrogen). Cells were transfected 24 hours after plating in triplicate. Medium was replaced 48 hours after transfection with fresh medium.

[2] = tested on: M249 melanoma cell line; assay: as above; assay type: cell-based; details: 5 nM mimic, 72 hours after transfection
Description: as §1

[3] = tested on: M249-AR (M249-R4) melanoma cell line; assay: as above; assay type: cell-based; details: 30 nM mimic, 72 hours after transfection
Description: as §1

[4] = tested on: RPMI-7951 melanoma cell line; assay: as above; assay type: cell-based; details: 10 nM mimic, 72 hours after transfection
Description: as §1

[5] = tested on: A375Hu melanoma cell line; assay: as above; assay type: cell-based, human; details: 10 nM mimic, 72 hours after transfection
Description: as §1

[6] = tested on: A375Hu-R1 melanoma cell line; assay: as above; assay type: cell-based, human; details: 10 nM mimic, 72 hours after transfection
Description: as §1

[7] = tested on: CDK6; assay: Western immunoblotting of CDK6 protein levels; assay type: cell-based, human; details: A375Hu cells, 72 hrs post transfection, Western blot
Description: (§2) A375Hu cells were seeded in 6-well plates and transfected with different concentrations (10, 50 and 100 nM) of synthetic hsa-miR-129-5p or BRAF siRNA (100 nM) using RNAiMAX (7.5 μl/well). As control a scrambled miRNA and a non-targeting siRNA pool were included. Proteins were harvested 72 hrs post transfection using RIPA buffer supplemented with HALT™ Phosphatase Inhibitor (Thermo Scientific) and Protease Inhibitor Cocktail (Sigma). Fifteen μg protein was loaded on 7.5% TGX acrylamide gels (Bio-Rad) and subsequently transferred to PVDF membranes. The membranes were blocked in 5% milk in TBS-T and incubated O/N at 4° C. with primary antibodies to bRAF, phosphoERK1/2, CDK6, and tubulin (Santa Cruz). After incubation with secondary goat-anti-mouse antibodies (Santa Cruz), membranes were developed using ECL (Pierce).

[8] = tested on: phospho-ERK1/2; assay: Western immunoblotting of phospho-ERK1/2 protein levels; assay type: cell-based, human; details: A375Hu cells, 72 hrs, Western blot
Description: as §2
as §2, with “(1, 10” for “(10, 50”, “hsa-miR-3157” for “hsa-miR-129-5p”, “bRAF, total ERK1/2,” for “bRAF,”, “CDK4, BCL2” for “CDK6,”
as §2, with “concentrations” for “concentrations (10, 50 and 100 nM)”, “vemurafenib (PLX-4032, 0.01, 0.1, 1 uM).” for “synthetic hsa-miR-129-5p or BRAF siRNA (100 nM) using RNAiMAX (7.5 μl/well). As control a scrambled miRNA and a non-targeting siRNA pool were included.”, “bRAF, total ERK1/2,” for “bRAF,”, “CDK4, BCL2” for “CDK6,”
A2058 cells were seeded in 6-well plates and transfected with different concentrations (1, 10 and 100 nM) of synthetic hsa-miR-3157-5p or BRAF siRNA using X-TremeGene (Roche, 15 μl/well). As control a scrambled miRNA was included. Proteins were harvested 72 hrs post transfection using RIPA buffer supplemented with HALT™ Phosphatase Inhibitor (Thermo Scientific) and Protease Inhibitor Cocktail (Sigma). Fifteen μg protein was loaded on 10% TGX acrylamide gels (Bio-Rad) and subsequently transferred to PVDF membranes. The membranes were blocked in 5% milk in TBS-T and incubated O/N at 4° C. with primary antibodies to bRAF, total ERK1/2, phosphoERK1/2, BCL2, CDK4 and tubulin (Santa Cruz). After incubation with secondary goat-anti-mouse antibodies (Santa Cruz), membranes were developed using ECL (Pierce).
Transfection was performed as described in Example 4 in 6-well format. Proteins were isolated using RIPA buffer (50 mM Tris pH 8.0, 150 mM NaCL, 1% NP-40, 0.5% Sodium deoxycholate, 0.1% SDS), supplemented with Protease Inhibitor Cocktail (Sigma) and Halt™ Phosphatase Inhibitor Cocktail (Pierce/Thermo Scientific). […]

| Substance | A2058 % Viability 10 nM [1] | M249 % Viability 5 nM [2] | M249-AR % Viability 30 nM [3] | RPMI-7951 % Viability 10 nM [4] | A375Hu % Viability 10 nM [5] | A375Hu-R1 % Viability 10 nM [6] | CDK6 protein levels [7] | phospho-ERK1/2 protein levels [8] |
| --- | --- | --- | --- | --- | --- | --- | --- | --- |
| hsa-miR-518b: mature miRNA mimic, SEQ ID NO 5 CAAAGCGCUCCCCUUUAGAGGU (listed as RNA, chemistry not given here) | 44% | 50% | 53% | 53% | 66% | – | – | – |
| hsa-miR-16-5p: mature miRNA mimic, SEQ ID NO 7 UAGCAGCACGUAAAUAUUGGCG (listed as RNA, chemistry not given here) | 39% | 27% | 68% | 68% | 62% | 57% | – | – |
| hsa-miR-7-5p: mature miRNA mimic, SEQ ID NO 1 UGGAAGACUAGUGAUUUUGUUGU (listed as RNA, chemistry not given here) | 51% | 48% | 67% | 65% | 58% | 68% | – | – |
| hsa-miR-497-5p: mature miRNA mimic, SEQ ID NO 8 CAGCAGCACACUGUGGUUUGU (listed as RNA, chemistry not given here) | 53% | 29% | 68% | 68% | 45% | 57% | – | – |
| hsa-miR-10b-3p: mature miRNA mimic, SEQ ID NO 2 ACAGAUUCGAUUCUAGGGGAAU (listed as RNA, chemistry not given here) | 42% | 82% | 86% | 51% | 71% | 59% | – | – |
| hsa-miR-96-5p: mature miRNA mimic, SEQ ID NO 3 UUUGGCACUAGCACAUUUUUGCU (listed as RNA, chemistry not given here) | 33% | 64% | 82% | 53% | 73% | 69% | – | – |
| hsa-miR-200c-5p: mature miRNA mimic, SEQ ID NO 9 CGUCUUACCCAGCAGUGUUUGG (listed as RNA, chemistry not given here) | 37% | 44% | 58% | 58% | 43% | 66% | – | – |
| hsa-miR-182-3p: mature miRNA mimic, SEQ ID NO 10 UGGUUCUAGACUUGCCAACUA (listed as RNA, chemistry not given here) | 77% | 71% | 83% | 68% | – | 59% | – | – |
| hsa-miR-129-5p: mature miRNA mimic, SEQ ID NO 4 CUUUUUGCGGUCUGGGCUUGC (listed as RNA, chemistry not given here) | 44% | 47% | 64% | 82% | 59% | 48% | significant reduction in CDK6 protein abundance; also recorded: down-regulates | does not result in pERK down-regulation |
